From US20210238170A1, “5,5-Difluoro- and 5-Fluoro-5-Methyl-C-Glycoside Derivatives Useful As Dual SGLT1 / SGLT2 Modulators” (Janssen Pharmaceutica NV, priority 2018, published 2021)
pIC50: −log10 of the molar value.

How the values were obtained:
human SGLT1 = target: T1, human SGLT1 (Homo sapiens, UniProt P13866); assay: SGLT1 in vitro assay: Na-dependent 14C-AMG uptake in CHO-K1 cells stably expressing human SGLT1; format: cell-based; settings: for inhibition at 0.3 µM: read-out: SGLT1 % Inh @ 0.3 μM; for pIC50: compounds of formula (I) where R0 is fluoro
T1 construct: expressed in transfected cells
T1 sequence (P13866 1-664): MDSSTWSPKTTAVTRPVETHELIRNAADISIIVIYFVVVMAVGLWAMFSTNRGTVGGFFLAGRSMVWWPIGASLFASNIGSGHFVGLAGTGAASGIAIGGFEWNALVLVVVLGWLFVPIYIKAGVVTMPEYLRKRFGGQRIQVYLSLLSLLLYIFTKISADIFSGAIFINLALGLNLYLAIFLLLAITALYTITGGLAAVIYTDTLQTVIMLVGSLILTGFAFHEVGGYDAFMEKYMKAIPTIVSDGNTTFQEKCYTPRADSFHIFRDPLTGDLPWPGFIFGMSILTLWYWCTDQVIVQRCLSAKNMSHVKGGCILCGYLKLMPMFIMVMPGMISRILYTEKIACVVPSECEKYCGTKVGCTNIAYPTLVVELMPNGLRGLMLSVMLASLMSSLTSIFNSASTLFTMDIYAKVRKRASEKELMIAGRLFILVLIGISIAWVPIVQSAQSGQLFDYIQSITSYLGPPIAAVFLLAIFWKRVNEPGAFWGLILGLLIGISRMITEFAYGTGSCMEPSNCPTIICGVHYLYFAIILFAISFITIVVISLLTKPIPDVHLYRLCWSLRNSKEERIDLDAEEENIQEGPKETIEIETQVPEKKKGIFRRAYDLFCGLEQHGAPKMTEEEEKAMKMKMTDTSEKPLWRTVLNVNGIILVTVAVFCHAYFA
Procedure: (§1) Biological Example 1: SGLT1 and SGLT2 In Vitro Assays
(§2) The ability of the compounds of formula (I) of the present invention to treat an SGLT-mediated condition was determined using the following procedures:
(§3) SGLT1 and SGLT2 were cloned in form of cDNA from human small intestine (Genbank M24847), and from human kidney (Genbank M95549), respectively. Subsequently, each full cDNA was subcloned into pcDNA with each construct's integrity verified through follow-on sequencing. To generate CHO-K1 cells that stably express human SGLT1 or human SGLT2, CHO-K1 cells were transfected using DMRIE-C reagent (Life Technologies, Gaithersburg, Md.). Transfected cells were then selected in the presence of 500 μg/ml of the Geneticin (G418 Cellgro Catalog No. 30234-CI)
(§4) Individual clones were then characterized using the following cell-based assay for sodium-dependent glucose transport:
(§5) Inhibition of SGLT1 and SGLT2 activity was assessed in CHO K1 cells stably expressing either human SGLT1 or SGLT2, using the SGLT specific glucose analog methyl-glucopyranoside (Sigma Catalog No. M-9376). Cells were plated (45,000 cells/well) in white wall 96-well plates (COSTAR, Cat #3903) for 24 hours in growth medium, then a final concentration of 10 mM Na-Butyrate (ALDRICH Cat #30341-0) was added. The cells were incubated for 24 hours. On the day of the assay, cells were rinsed and treated with test compounds (at concentrations of 0.001 μM to 10 μM) in assay buffer (50 mM HEPES, 20 mM Tris base, 5 mM KCl, 1 mM MgCl2, 1 mM CaCl2 and 137 mM NaCl, pH 7.4) for 10 minutes. Cells were then incubated with ^14C-a-methyl-d-glucopyranoside (AMG, Amersham Catalog No. CFB 76), using 0.07 μCi per well in 500 µM AMG final concentration. The cells were incubated for 2 hours at 37° C. with 5% CO2 and washed two times with ice-cold Phosphate Buffer Solution (CELLGRO Catalog No. 21030-CV). The cells were then solubilized by adding 60 μl of MICROSCINT™ 20 and the Na-dependent ^14C-AMG uptake was quantified by measuring radioactivity. Plates were counted in a TopCount (Packard, Meriden, Conn.)
(§6) Representative compounds of the present invention were tested according to the procedures as described in Biological Example 1 and 2 above, with results as listed in Table 5, below. Results are reported as the %-inhibition or IC50 value. Variability for the functional assay was typically within 20%.

human SGLT2 = target: T2, human SGLT2 (Homo sapiens, UniProt P31639); assay: SGLT2 in vitro assay: Na-dependent 14C-AMG uptake in CHO-K1 cells stably expressing human SGLT2; format: cell-based; settings: for inhibition at 0.3 µM: read-out: SGLT2 % Inh @ 0.3 μM; for pIC50: compounds of formula (I) where R0 is fluoro
T2 construct: expressed in transfected cells
T2 sequence (P31639 1-672): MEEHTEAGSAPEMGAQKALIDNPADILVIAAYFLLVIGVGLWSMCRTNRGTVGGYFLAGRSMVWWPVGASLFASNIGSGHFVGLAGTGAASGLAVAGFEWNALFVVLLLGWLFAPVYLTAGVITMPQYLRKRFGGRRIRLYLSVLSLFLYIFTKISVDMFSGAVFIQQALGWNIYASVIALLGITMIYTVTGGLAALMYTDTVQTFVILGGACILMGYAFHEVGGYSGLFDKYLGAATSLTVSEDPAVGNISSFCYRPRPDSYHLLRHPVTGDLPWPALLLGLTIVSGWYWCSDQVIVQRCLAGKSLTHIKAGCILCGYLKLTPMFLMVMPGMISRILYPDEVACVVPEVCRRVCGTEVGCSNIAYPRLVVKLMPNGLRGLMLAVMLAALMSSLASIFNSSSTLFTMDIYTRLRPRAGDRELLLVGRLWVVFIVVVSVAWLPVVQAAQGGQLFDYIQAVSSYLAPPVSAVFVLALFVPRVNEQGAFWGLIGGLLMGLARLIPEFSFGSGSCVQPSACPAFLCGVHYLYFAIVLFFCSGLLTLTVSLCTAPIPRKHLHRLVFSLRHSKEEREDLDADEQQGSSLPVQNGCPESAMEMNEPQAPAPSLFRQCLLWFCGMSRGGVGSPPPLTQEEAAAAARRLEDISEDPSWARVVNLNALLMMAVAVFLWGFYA
Procedure: as §1, §2, §3, §4, §5, §6

[1] = @ 0.3 μM, CHO-K1 cells stably expressing human SGLT1, 14C-AMG uptake
[2] = CHO-K1 cells stably expressing human SGLT1, 14C-AMG uptake
[3] = @ 0.3 μM, CHO-K1 cells stably expressing human SGLT2, 14C-AMG uptake
[4] = CHO-K1 cells stably expressing human SGLT2, 14C-AMG uptake
[5] = 0.3 μM, CHO-K1 cells expressing human SGLT1
[6] = 0.3 μM, CHO-K1 cells expressing human SGLT2

Row | inhibition at 0.3 µM (human SGLT1; [1]) | pIC50 (human SGLT1; [2]) | inhibition at 0.3 µM (human SGLT2; [3]) | pIC50 (human SGLT2; [4]) | SGLT1 % Inh @ 0.3 μM (human SGLT1; [1]) | SGLT2 % Inh @ 0.3 μM (human SGLT2; [3]) | Structure (SMILES) | further results
1 | 40.7% | 6.37 | 83.9% | 8.35 |  |  | OC[C@H]1O[C@@H](c2cc(Cc3ccc4c(c3)SCCO4)c(Cl)c3c2OCC3)[C@H](O)[C@@H](O)C1(F)F [Compound 132] | 
2 | 48.1% | 6.20 | 87.7% | 8.33 |  |  | CCc1cc(OC)c([C@@H]2O[C@H](CO)C(F)(F)[C@H](O)[C@H]2O)cc1Cc1ccc(OC)cc1 [Compound 89, (2S,3R,4R,6R)-2-[4-ethyl-2-methoxy-5-[(4-methoxyphenyl)methyl]phenyl]-5,5-difluoro-6-(hydroxymethyl)tetrahydropyran-3,4-diol] | 
3 |  |  |  |  | 41.9% | 76.8% | OC[C@H]1O[C@@H](c2cc3c(c(Cc4ccc(OCF)cc4)c2)OCC3)[C@H](O)[C@@H](O)C1(F)F [Compound 146] | 
4 | 48.7% | 6.23 | 88.1% | 8.17 |  |  | CCc1ccc(Cc2cc([C@@H]3O[C@H](CO)C(F)(F)[C@H](O)[C@H]3O)c(OC)cc2OC)cc1 [Compound 153] | 
5 | 79.5% | 6.92 | 88.7% | 8.11 |  |  | CCc1ccc(Cc2cc([C@@H]3O[C@H](CO)C(F)(F)[C@H](O)[C@H]3O)c(O)cc2CC)cc1 [Compound 128] | 
6 |  |  |  |  |  |  | COc1cc(C)c(Cc2ccc(OCF)cc2)cc1[C@@H]1O[C@H](CO)[C@@](C)(F)[C@H](O)[C@H]1O [Compound 24] | SGLT1 % Inh @ 0.3 μM (human SGLT1; [5]): 29.6%; SGLT2 % Inh @ 0.3 μM (human SGLT2; [6]): 77.1%
7 |  |  |  |  | 24.7% | 73.2% | COc1c([C@@H]2O[C@H](CO)C(F)(F)[C@H](O)[C@H]2O)cc(Cc2ccc(OCF)cc2)c2c1CCO2 [Compound 184] | 
8 |  |  |  |  | 50.4% | 52.5% | CCc1ccc(Cc2cc([C@@H]3O[C@H](CO)C(F)(F)[C@H](O)[C@H]3O)c(O)cc2C2CC2)cc1 [Compound 137] | 
9 |  |  |  |  |  |  | C[C@]1(F)[C@H](O)[C@@H](O)[C@H](c2cc3c(c(Cc4ccc5c(c4)OCCO5)c2)OCC3)O[C@@H]1CO [Compound 19] | SGLT1 % Inh @ 0.3 μM (human SGLT1; [5]): 9.3%; SGLT2 % Inh @ 0.3 μM (human SGLT2; [6]): 73.5%
10 |  |  |  |  | 12.1% | 78.9% | COc1cc(C#N)c(Cc2ccc(C3CC3)cc2)cc1[C@@H]1O[C@H](CO)C(F)(F)[C@H](O)[C@H]1O [Compound 169] | 
11 | 39.2% |  | 76.3% |  |  |  | COc1cc(C)c(Cc2cc3ccccc3s2)cc1[C@@H]1O[C@H](CO)C(F)(F)[C@H](O)[C@H]1O [Compound 35, (2S,3R,4R,6R)-2-[5-(benzothiophen-2-ylmethyl)-2-methoxy-4-methyl-phenyl]-5,5-difluoro-6-(hydroxymethyl)tetrahydropyran-3,4-diol] | 
12 | 15.8% |  | 84.2% |  |  |  | COc1cc(OC)c([C@@H]2O[C@H](CO)C(F)(F)[C@H](O)[C@H]2O)cc1Cc1ccc2c(c1)OCCO2 [Compound 55, (2S,3R,4R,6R)-2-[5-(2,3-dihydro-1,4-benzodioxin-6-ylmethyl)-2,4-dimethoxy-phenyl]-5,5-difluoro-6-(hydroxymethyl)tetrahydropyran-3,4-diol] | 
13 |  |  |  |  | 16.9% | 56.1% | COC(=O)N1CCc2sc(Cc3cc([C@@H]4O[C@H](CO)C(F)(F)[C@H](O)[C@H]4O)c(OC)cc3Cl)cc2C1 [Compound 65] | 
14 |  |  |  |  | 30.8% | 82.0% | N#CCOc1cc(Cl)c(Cc2cc3ccccc3s2)cc1[C@@H]1O[C@H](CO)C(F)(F)[C@H](O)[C@H]1O [Compound 51] | 
15 |  |  |  |  | 24.9% | 79.0% | COc1cc(O)c([C@@H]2O[C@H](CO)C(F)(F)[C@H](O)[C@H]2O)cc1Cc1ccc(OC(F)(F)F)cc1 [Compound 119] | 
16 | 84.4% | 7.14 | 72.5% | 8.51 |  |  | CCc1cc(O)c([C@@H]2O[C@H](CO)C(F)(F)[C@H](O)[C@H]2O)cc1Cc1ccc(C2CC2)cc1 [Compound 150] | 
17 |  |  |  |  | 23.2% | 79.2% | CCOc1ccc(Cc2cc([C@@H]3O[C@H](CO)C(F)(F)[C@H](O)[C@H]3O)c(OC)cc2C)cc1 [Compound 49] | 
18 | 83.4% | 7.06 | 91.1% | 7.91 |  |  | Cc1c(Cc2cc3ccccc3s2)cc([C@@H]2O[C@H](CO)C(F)(F)[C@H](O)[C@H]2O)c(O)c1C [Compound 60, (2S,3R,4R,6R)-2-(5-(benzo[b]thiophen-2-ylmethyl)-2-hydroxy-3,4-dimethylphenyl)-5,5-difluoro-6-(hydroxymethyl)tetrahydro-2H-pyran-3,4-diol] | 
19 | 73.1% | 7.60 | 64.4% | 8.92 |  |  | OC[C@H]1O[C@@H](c2cc(Cc3ccc(Cl)cc3)c(Cl)cc2O)[C@H](O)[C@@H](O)C1(F)F [Compound 163, (2S,3R,4R,6R)-2-(4-chloro-5-(4-chlorobenzyl)-2-hydroxyphenyl)-5,5-difluoro-6-(hydroxymethyl)-tetrahydro-2H-pyran-3,4-diol] | 
20 | 52.7% | 6.80 | 74.6% | 7.44 |  |  | OC[C@H]1O[C@@H](c2cc(Cc3ccc4c(c3)OCCO4)c3c(c2O)OCC3)[C@H](O)[C@@H](O)C1(F)F [Compound 187] | 
21 |  |  |  |  | 21.6% | 60.1% | OC[C@H]1O[C@@H](c2cc(Cc3ccc4c(c3)OCCO4)c(Cl)c3c2CCO3)[C@H](O)[C@@H](O)C1(F)F [Compound 188] | 
